Results from patent US20250101032A1, “EXATECAN DERIVATIVES AND ANTIBODY-DRUG CONJUGATES THEREOF” (priority 2021, published 2025).
pIC50: −log10 of the molar value. Values after ≈ are worked out from the molar mass of the structure shown. Read-outs that look alike come from different tables or passages of the source.

Experiments:
SKBR3 = assay: In vitro cytotoxicity assay (CellTiter-Glo), SKBR3; assay type: cell-based, Human; details: read-out: Cytotoxicity IC50
Protocol: (§1) Human tumor cell lines, SK-BR-3, NCI-H292, HT-29, MCF-7, NCI-N87, and FaDu were obtained from ATCC. NCI-H292, HT-29, MCF-7, and NCI-N87 cells were cultured in RPMI-1640 media (Gibco, Life Technologies) supplemented with 10% v/v heat inactivated FBS (Corning), FaDu cells were maintained in DMEM media (Gibco, Life Technologies) supplemented with 10% v/v heat inactivated FBS (Corning). SK-BR-3 cells were maintained in McCoys 5A medium (Gibco, Life Technologies) supplemented with 10% […] heat inactivated FBS (Corning) at 37° C. in a humidified incubator containing 5% CO2.
(§2) Lyophilized compounds were dissolved in 100% dry DMSO, aliquots frozen and stored at −80° C. Concentration and purity of compound stock solutions in DMSO were determined by RP-HPLC Agilent 1100 platform with 1200 DAD and SofTA ELSD detectors, and the Agilent 6150 MS system (UV/VIS, ELSD purity and MS compound identity confirmation). Shimadzu 3.0 mm×30 mm XR ODS 2.2 μm column was run at 50° C., 1.5 mL/min. Solvent A: 0.1% Formic acid in water, Solvent B: 0.08% Formic acid in methanol-Gradient: 5%-100% B in 3.0 min, 100% solvent B for 0.3 min. Concentration of compounds in 100% DMSO determined by ELS ranged from 1-6 mM.
(§3) Cells were plated in 96-well white flat-bottomed plates (Corning) at 2.0×10^3 cells per well in 100 μL culture medium. After incubation for 24 hours, test compounds were added at a range of concentrations as ten point serial dilution as duplicates or triplicates. Following further incubation for 6 days 37° C., 5% CO2, cell viability was assessed with the use of a CellTiter-Glo Luminescent Cell Viability Assay (Promega). Luminescence was measured using the GloMax instrument (Promega). […] For a subset of payloads, each treatment was independently repeated two to eight times, and IC50 values were averaged. […] Standard deviation (stdev) is shown as (N/A) for treatment performed once.

FaDu = assay: In vitro cytotoxicity assay (CellTiter-Glo), FaDu; assay type: cell-based, Human; details: read-out: Cytotoxicity IC50
Protocol: as §1, §2, §3

HT29 = assay: In vitro cytotoxicity assay (CellTiter-Glo), HT29; assay type: cell-based, Human; details: read-out: Cytotoxicity IC50
Protocol: as §1, §2, §3

NCI-H292 = assay: In vitro cytotoxicity assay (CellTiter-Glo), NCI-H292; assay type: cell-based, Human; details: read-out: Cytotoxicity IC50
Protocol: as §1, §2, §3

NCI-N87 = assay: In vitro cytotoxicity assay (CellTiter-Glo), NCI-N87; assay type: cell-based, Human; details: read-out: Cytotoxicity IC50
Protocol: as §1, §2, §3

MCF7 = assay: In vitro cytotoxicity assay (CellTiter-Glo), MCF7; assay type: cell-based, Human; details: read-out: Cytotoxicity IC50
Protocol: as §1, §2, §3

physchem = details: 25 °C, pH 7.4, aqueous buffer, kinetic from dmso stock
Protocol: In-vitro kinetic solubilities of the compounds in PBS pH 7.4 buffer at 25° C. were determined by diluting compounds from 100% dimethyl sulfoxide (DMSO) into PBS buffer and measuring absorbance at 490, 590 and 650 nm. Stock concentrations in 100% DMSO were provided at 1-6 mM in 100% DMSO. Kinetic solubilities were determined by diluting test compounds from 100% DMSO into PBS pH 7.4 buffer, as duplicate, 10 point 2-fold serial dilution starting at 100× dilution of stock DMS solution into PBS buffer in a clear, flat bottom polystyrene assay plates. Total assay volume was 200 microliters. Solutions were mixed by plate shaking, incubated for 30 m at 25° C., and absorbance was read at 490, 590 and 650 nm. […] in PBS buffer was used as a blank. For each test compound, average optical density (GD) at each concentration was determined by averaging the blank corrected sum of absorption at 490 nm, 590 nm and 650 nm, over duplicate measurements. Turbidity threshold optical density value was set as a sum of mean plus two standard deviations of the mean of absorbances at 490, 590 and 650 nm for 1% (v/v) DMSO in PBS pH 7.4 buffer. Highest soluble concentration (micromolar) corresponded to the highest concentration at which average optical density was below optical density value set for turbidity threshold (Table 4). Amiodarone and propranolol were used as low and high solubility controls respectively.

BXPC3 = assay: In vitro cytotoxicity assay (CellTiter-Glo), BXPC3; assay type: cell-based; details: read-out: Cytotoxicity IC50
Protocol: (§4) Lyophilized compounds were dissolved in 100% dry DMSO, aliquots frozen and stored at −80° C. […] Shimadzu 3.0 mm×30 mm XR ODS 2.2 μm column was run at 50° C., 1.5 mL/min. Solvent A: 0.1% Formic acid in water, Solvent B: 0.08% Formic acid in methanol-Gradient: 5%-100% B in 3.0 min, 100% solvent B for 0.3 min.
as §3

SKOV3 = assay: In vitro cytotoxicity assay (CellTiter-Glo), SKOV3; assay type: cell-based; details: read-out: Cytotoxicity IC50
Protocol: as §4, §3

Row | Compound | pIC50 (SKBR3; Homo sapiens, SK-BR-3, 144 h) | pIC50 (FaDu; Homo sapiens, FaDu, 144 h) | pIC50 (HT29; Homo sapiens, HT-29, 144 h) | pIC50 (NCI-H292; Homo sapiens, NCI-H292, 144 h) | pIC50 (NCI-N87; Homo sapiens, NCI-N87, 144 h) | pIC50 (MCF7; Homo sapiens, MCF7, 144 h) | solubility at 30 min (physchem) [µM] | pIC50 (BXPC3; Homo sapiens, BXPC-3, 144 h) | pIC50 (SKOV3; Homo sapiens, SK-OV-3, 144 h) | pIC50 (SKBR3; SKBR3 cells, 6 days incubation, mean of IC50 values) | pIC50 (FaDu; FaDu cells, 6 days incubation, mean of IC50 values) | pIC50 (HT29; HT29 cells, 6 days incubation, mean of IC50 values) | pIC50 (BXPC3; BXPC3 cells, 6 days incubation, mean of IC50 values) | pIC50 (NCI-H292; NCI-H292 cells, 6 days incubation, mean of IC50 values) | pIC50 (NCI-N87; NCI-N87 cells, 6 days incubation, mean of IC50 values) | pIC50 (SKOV3; SKOV3 cells, 6 days incubation, mean of IC50 values) | pIC50 (MCF7; MCF7 cells, 6 days incubation, mean of IC50 values)
1 | CC[C@@]1(O)C(=O)OCc2c1cc1n(c2=O)Cc2c-1nc1cc(F)c(C)c3c1c2[C@@H](NC(=O)[C@H]1C[C@H]1CO)CC3 (single isomer, unassigned) [Compound 111-B] | 8.68 | 8.96 | 8.20 | 8.35 | 8.28 | 8.42 | 30 (≈ 16 µg/mL) |  |  |  |  |  |  |  |  |  | 
2 | CC[C@@]1(O)C(=O)OCc2c1cc1n(c2=O)Cc2c-1nc1cc(F)c(C)c3c1c2[C@@H](NC(=O)C1CC(O)C1)CC3 (stereo partly drawn) [Compound 58] | 7.92 | 8.20 | 6.75 | 7.22 | 7.31 | 7.49 |  |  |  |  |  |  |  |  |  |  | 
3 | CC[C@@]1(O)C(=O)OCc2c1cc1n(c2=O)Cc2c-1nc1cc(F)c(C)c3c1c2[C@@H](NC(=O)C12CC(O)(C1)C2)CC3 [Compound 79] | 8.23 | 8.64 | 7.50 | 7.85 | 7.81 | 8.01 |  | 8.26 | 7.60 |  |  |  |  |  |  |  | 
4 | CC[C@@]1(O)C(=O)OCc2c1cc1n(c2=O)Cc2c-1nc1cc(F)c(C)c3c1c2[C@@H](NC(=O)C#CCO)CC3 [Compound 83] | 7.59 | 7.78 | 6.59 | 6.92 | 6.80 | 7.37 |  |  |  |  |  |  |  |  |  |  | 
5 | CC[C@@]1(O)C(=O)OCc2c1cc1n(c2=S)Cc2c-1nc1cc(F)c(C)c3c1c2[C@@H](NC(=O)CO)CC3 [Compound 106] | 9.40 |  | 8.96 | 9.40 | 9.05 | 9.70 |  |  |  |  |  |  |  |  |  |  | 
6 | CC[C@@]1(O)C(=O)OCc2c1cc1n(c2=S)Cc2c-1nc1cc(F)c(C)c3c1c2[C@@H](N)CC3 [Compound 107] | 10.00 | 10.00 | 9.40 | 9.22 | 9.70 | 9.70 | 15 (≈ 6.77 µg/mL) |  |  |  |  |  |  |  |  |  | 
7 | CC[C@@]1(O)C(=O)OCc2c1cc1n(c2=O)Cc2c-1nc1cc(F)c(C)c3c1c2[C@@H](NC(=O)CCC(=O)NC(CO)(CO)CO)CC3 [Compound 122] | 6.18 | 6.92 | 5.47 | 5.99 | 5.57 | 6.69 |  | 6.64 | 6.09 |  |  |  |  |  |  |  | 
8 | CC[C@@]1(O)C(=O)OCc2c1cc1n(c2=O)Cc2c-1nc1cc(F)c(C)c3c1c2[C@@H](N(C)CCO)CC3 [Compound 140] | 9.10 | 9.52 | 8.92 | 8.52 | 8.82 | 9.70 | 10 (≈ 4.94 µg/mL) |  |  |  |  |  |  |  |  |  | 
9 | CC[C@@]1(O)C(=O)OCc2c1cc1n(c2=O)Cc2c-1nc1cc(F)c(C)c3c1c2[C@@H](NCCOCCO)CC3 [Compound 147] | 8.57 | 8.52 | 8.15 | 8.03 | 8.07 | 8.51 | 21 (≈ 11 µg/mL) |  |  |  |  |  |  |  |  |  | 
10 | CC[C@@]1(O)C(=O)OCc2c1cc1n(c2=O)Cc2c-1nc1cc(F)c(C)c3c1c2[C@@H](NC(=O)C1(O)COC1)CC3 [Compound 159] | 8.24 | 8.70 | 7.19 | 7.67 | 7.65 | 8.01 | 27 (≈ 14.5 µg/mL) |  |  |  |  |  |  |  |  |  | 
11 | CC[C@@]1(O)C(=O)OCc2c1cc1n(c2=O)Cc2c-1nc1cc(F)c(C)c3c1c2[C@@H](N(C=O)CCO)CC3 [Compound 163] | 8.01 | 8.11 | 7.19 | 7.65 | 7.53 | 7.96 | 24 (≈ 12.2 µg/mL) |  |  |  |  |  |  |  |  |  | 
12 | CC[C@@]1(O)C(=O)OCc2c1cc1n(c2=O)Cc2c-1nc1cc(F)c(C)c3c1c2[C@@H](NCCNCCN)CC3 [Compound 164] | 7.97 | 8.06 | 7.49 | 7.52 | 7.64 | 8.28 | 10 (≈ 5.22 µg/mL) |  |  |  |  |  |  |  |  |  | 
13 | CC[C@@]1(O)C(=O)OCc2c1cc1n(c2=O)Cc2c-1nc1cc(F)c(C)c3c1c2[C@@H](NC(=O)c1cc(O)[nH]n1)CC3 [Compound 166] | 6.93 | 7.03 | 6.18 | 6.49 | 6.39 | 6.79 | 22 (≈ 12 µg/mL) |  |  |  |  |  |  |  |  |  | 
14 | CC[C@@]1(O)C(=O)OCc2c1cc1n(c2=O)Cc2c-1nc1cc(F)c(C)c3c1c2[C@@H](NC(=O)c1coc(CO)n1)CC3 [Compound 167] | 8.46 | 8.52 | 7.36 | 7.64 | 7.47 | 8.05 |  |  |  |  |  |  |  |  |  |  | 
15 | CC[C@@]1(O)C(=O)OCc2c1cc1n(c2=O)Cc2c-1nc1cc(F)c(C)c3c1c2[C@@H](NC(=O)c1cc(CO)[nH]n1)CC3 [Compound 168] | 7.49 | 8.00 | 6.20 | 7.11 | 6.99 | 7.71 |  |  |  |  |  |  |  |  |  |  | 
16 | CC[C@@]1(O)C(=O)OCc2c1cc1n(c2=S)Cc2c-1nc1cc(F)c(C)c3c1c2[C@@H](NC(=S)[C@H]1C[C@@H]1CO)CC3 [Compound 175-B] | 9.30 | 9.52 | 8.80 | 8.82 | 8.82 | 9.22 |  |  |  |  |  |  |  |  |  |  | 
17 | CC[C@@]1(O)C(=O)OCc2c1cc1n(c2=O)Cc2c-1nc1cc(F)c(C)c3c1c2[C@@H](NC(=S)CO)CC3 [Compound 176] | 9.15 | 9.05 | 8.37 | 8.35 | 8.68 | 8.11 |  |  |  |  |  |  |  |  |  |  | 
18 | CC[C@@]1(O)C(=O)OCc2c1cc1n(c2=O)Cc2c-1nc1cc(F)c(C)c3c1c2[C@@H](NC(=O)CCC1OCCO1)CC3 [Compound 188] | 8.47 | 8.82 | 7.89 | 8.18 | 8.05 | 8.31 | 6 (≈ 3.38 µg/mL) |  |  |  |  |  |  |  |  |  | 
19 | CC[C@@]1(O)C(=O)OCc2c1cc1n(c2=O)Cc2c-1nc1cc(F)c(C)c3c1c2[C@@H](NC(=O)CO)CC3 [DXD] |  |  |  |  |  |  |  |  |  | 8.89 | 9.05 | 8.16 | 8.64 | 8.42 | 8.33 | 8.07 | 8.57
20 | CC(C)NCC(O)COc1cccc2ccccc12 (stereo not drawn) [Propranolol, propranolol, reference compound] |  |  |  |  |  |  | 100 (≈ 25.9 µg/mL) |  |  |  |  |  |  |  |  |  | 
